Results on five compounds are retold here after patent publication US12115224B2, “Polypeptide conjugates for intracellular delivery of stapled peptides” (Ohio State Innovation Foundation, priority 2017, dated 2024).

Numbered stars: 1 amine (or outer) side, 2 acyl side, 3 side chain; on linkers, the order of the positions; unused ones are H or OH. Bridge positions count the residues as written; N and C are the ends. Square brackets hold non-standard residues; d marks the D form. Peptide text beside a SMILES is read from it. I, II: the chains in the order shown. * marks the point of attachment. FITC = O=C1OC2(c3ccc(O)cc3Oc3cc(O)ccc32)c2ccc(NC(=S)*)cc21; 2Nal = N[C@@H](Cc1ccc2ccccc2c1)C(=O)O; NF = 5(6)-carboxynaphthofluorescein; CH2COCH2 = O=C(C[*:1])C[*:2]; hCys = N[C@@H](CCS)C(=O)O; AEEA = NCCOCCOCC(=O)O; βAla = NCCC(=O)O

For data set [1] the following is noted: cited from earlier work.
Another data set relates to HCT116 p53+/+. In words: MTT viability assay, HCT116 WT p53. The following applies: 0-12.5 μM, 48 h, 10% FBS. The format is cell-based, human. Here is the method: (§1) Peptides 4 and 5 were tested for anticancer activity against human colon carcinoma cell lines harboring WT (HCT116 p53+/+) and mutant p53 genes (HCT116 p53−/−) using the MTT viability assay. […] See Vassilev, L. T., et al., Science, 303, 844-848 (2004).
(§2) MTT Assay. HCT116 p53 wild type and HCT116 p53^−/− cells were seeded in 96-well plate with 3×10^3 cells per well, and allowed to grow overnight. Different concentrations of peptides (0-12.5 μM) were added to the cells in McCoy's 5A medium supplemented with 10% FBS and 1% penicillin/streptomycin and incubated at 37° C. for 48 h in the presence of 5% CO2. After that, 10 μL of an MTT stock solution (5 mg/mL) was added into each well and the plate was incubated at 37° C. for 4 h. 100 μL of SDS-HCl solubilizing solution was added and the plate was incubated at 37° C. overnight. The absorbance of the formazan product formed was measured at 570 nm on a Tecan microtiter plate reader.

A further data set deals with HCT116 p53−/−. In words: MTT viability assay, HCT116 p53-/-. Format: cell-based, human. Particulars: 0-12.5 μM, 48 h, 10% FBS. Here is the method:
as §1, §2
A general note: Formazan colour is commonly taken as a measure of viable cells.

The next data set concerns SJSA-1 cells. Kind of data set: Annexin V/propidium iodide flow cytometry assay. Particulars: 48-hour treatment, 10% FBS. Format: cell-based. Here is the method:
The percentage of Annexin V+/PI+ and Annexin V+/PI− SJSA-1 cells after 48-hour treatment of inhibitors in presence of 10% FBS was measured.
The mode of action (MOA) of CPP9-sPDI upon cytosolic delivery of the MDM2 inhibitor was also considered. […] This behavior is similar to Nutlin-3a, which is known to induce p53-dependent apoptosis in certain cancer cell lines. In this study, the percentage of Annexin V+/PI+ and Annexin V+/PI− SJSA-1 cells is determined after 48-hour treatment of inhibitors in presence of 10% FBS.
(In general: In flow cytometry, cells or beads pass a laser one at a time.)

For another data set, the system named is HeLa cells. In words: Live-cell confocal microscopy of FITC-labeled peptides. Format: cell-based. The following applies: 5 μM FITC-labeled peptide, 2 h, 37° C. Here is the method: HeLa cells were treated with 5 μM FITC-labeled peptide for 2 h at 37° C., washed to remove excess peptide, and subjected to live-cell confocal microscopy. I, DIC; II, GFP channel; and III, overlap of I and II.
Four pairs of the peptides from Table 6 were also labeled with FITC and their entry into HeLa cells were monitored by live-cell confocal microscopy (FIG. 4).
To assess delivery aptitude of each conjugate, peptides 22-25 were labeled with FITC and their entry into HeLa cells was monitored by live-cell confocal microscopy (FIG. 21). HeLa cells were treated with 5 μM FITC-labeled peptide for 2 h at 37° C. and washed to remove excess peptide.

The nature of data set [2]: Anti-proliferation MTT assay, SJSA-1. Particulars: 72-hour treatment, 0-20 μM, 10% FBS, read-out: IC50 (cytotoxicity). The format is cell-based. Here is the method:
IC50 values (μM) are provided for each test compound.
In addition, the anti-proliferative effects of CPP9-sPDI (structure 23) were evaluated. FIG. 23 compares the effects of CPP9-sPDI, Nutlin-3a, R9-sPDI, sPDI, CPP9-sPDI(F10A) and Tat-sPDI (0-20 μM) on the viability of SJSA-1 cell line after 72-hour treatment in the presence of 10% FBS as measured by MTT assay.

The nature of data set [3]: Serum stability in 25% human serum. Format: in vitro ADME. The following applies: 37° C., read-out: compound detected at the end of the study. Here is the method:
FIG. 25 is a graph showing the stability of CPP9-sPDI (structure 23) in 25% human serum at 37° C.
The serum stability of CPP9-sPDI was evaluated by incubating the conjugate in 25% human serum at 37° C. over 24 hours. […] The observed level of serum stability (cargo region) may impact the IC50 values measured for this compound.

Data set [4] can be described thus: Aqueous solubility (observation).

Regarding 5(6)-carboxynaphthofluorescein [NF], in data set [1], the pKa is 7.8.

Take `CC(=O)N[C@@H](CC(C)C)C(=O)N[C@H](C(=O)N[C@@H](Cc1ccccc1)C(=O)N[C@H]1CCSCC(=O)CSCC[C@@H](C(=O)N[C@@H](CCC(N)=O)C(=O)N[C@@H](CC(C)C)C(=O)N[C@H](C(=O)N[C@@H](CO)C(=O)NCCOCCOCC(=O)N[C@@H](CCCCNC(=S)Nc2ccc3c(c2)C(=O)OC32c3ccc(O)cc3Oc3cc(O)ccc32)C(N)=O)[C@@H](C)O)NC(=O)[C@H](Cc2c[nH]c3ccccc23)NC(=O)[C@H](Cc2ccc(O)cc2)NC(=O)[C@H](Cc2c[nH]cn2)NC1=O)[C@@H](C)O` [Peptide 2] (Ac-LTF[hCys]HYW[hCys]QLTS[AEEA]K(FITC)-NH2; linker 4-8 via CH2COCH2): the “effect on viability of WT p53 cells” value with HCT116 p53+/+ is listed as “no significant effect”. The “effect on viability of p53 mutant cells” value in the data set on HCT116 p53−/− is recorded as “no significant effect”.

For `CC(=O)N[C@@H](CC(C)C)C(=O)N[C@H](C(=O)N[C@@H](Cc1ccccc1)C(=O)N[C@H]1CC(=O)NCCCC[C@@H](C(=O)N[C@@H](CCC(N)=O)C(=O)N[C@@H](CC(C)C)C(=O)N[C@H](C(=O)N[C@@H](CO)C(=O)NCCOCCOCC(=O)N[C@@H](CCCCNC(=O)CC[C@@H]2NC(=O)[C@@H](CCCNC(=N)N)NC(=O)[C@H](CCCNC(=N)N)NC(=O)[C@@H](CCCNC(=N)N)NC(=O)[C@H](CCCNC(=N)N)NC(=O)[C@H](Cc3ccc4ccccc4c3)NC(=O)[C@@H](Cc3ccccc3)NC2=O)C(N)=O)[C@@H](C)O)NC(=O)[C@H](Cc2c[nH]c3ccccc23)NC(=O)[C@H](Cc2ccc(O)cc2)NC(=O)[C@H](Cc2c[nH]cn2)NC1=O)[C@@H](C)O` [Peptide 23] (I: Ac-LTFDHYWKQLTS[AEEA]K-NH2 / II: cyclo([2Nal]R[dR]R[dR]E[dF]); lactam I:4-I:8; amide I:14-II:6), the “mode of anti-proliferative action (Annexin V+/PI+ and Annexin V+/PI− cells)” value with SJSA-1 cells is on record as “mediated by apoptotic pathways”.

Regarding `CC(=O)N[C@@H](CC(C)C)C(=O)N[C@H](C(=O)N[C@@H](Cc1ccccc1)C(=O)N[C@H]1CC(=O)NCCCC[C@@H](C(=O)N[C@@H](CCC(N)=O)C(=O)N[C@@H](CC(C)C)C(=O)N[C@H](C(=O)N[C@@H](CO)C(=O)NCCOCCOCC(=O)N[C@@H](CCCCNC(=O)CC[C@@H]2NC(=O)[C@@H](CCCNC(=N)N)NC(=O)[C@H](CCCNC(=N)N)NC(=O)[C@@H](CCCNC(=N)N)NC(=O)[C@H](CCCNC(=N)N)NC(=O)[C@H](Cc3ccc4ccccc4c3)NC(=O)[C@@H](Cc3ccccc3)NC2=O)C(N)=O)[C@@H](C)O)NC(=O)[C@H](Cc2c[nH]c3ccccc23)NC(=O)[C@H](Cc2ccc(O)cc2)NC(=O)[C@H](Cc2cnc[nH]2)NC1=O)[C@@H](C)O` [Peptide 23] (I: Ac-LTFDHYWKQLTS[AEEA]K-NH2 / II: cyclo([2Nal]R[dR]R[dR]E[dF]); lactam I:4-I:8; amide I:14-II:6), the “cellular uptake by confocal microscopy” value in the data set with HeLa cells is on record as “most effective conjugate for delivering sPDI”. The IC50 in data set [2] turned out to be 3.86 µM. Also, the remaining at 24 h in data set [3] stood at 25%.

Consider “NF-βA-TYRGAAQCAAQCVREV-NH2 ({NF-βAla}-TYRGAAQCAAQCVREV-NH2; bridge 8-12; not fully specified (bridges)) [Peptide 20]”, for which, in data set [4], the aqueous solubility result was “limited solubility”.

As usually defined, the pKa is the pH at which an ionisable group is half protonated. The term IC50 denotes the concentration at which inhibition is half-maximal.
